In BindingDB's records for doi:10.1016/j.str.2004.10.004 (Plexxikon, 2004):
pIC50: −log10 of the molar value.

Molecular target: T1, High affinity cGMP-specific 3',5'-cyclic phosphodiesterase 9A [226-593] (Homo sapiens, UniProt O76083)
T1 construct: 226-593
Assay: not given
Details: not given

T1 sequence (O76083 226-593): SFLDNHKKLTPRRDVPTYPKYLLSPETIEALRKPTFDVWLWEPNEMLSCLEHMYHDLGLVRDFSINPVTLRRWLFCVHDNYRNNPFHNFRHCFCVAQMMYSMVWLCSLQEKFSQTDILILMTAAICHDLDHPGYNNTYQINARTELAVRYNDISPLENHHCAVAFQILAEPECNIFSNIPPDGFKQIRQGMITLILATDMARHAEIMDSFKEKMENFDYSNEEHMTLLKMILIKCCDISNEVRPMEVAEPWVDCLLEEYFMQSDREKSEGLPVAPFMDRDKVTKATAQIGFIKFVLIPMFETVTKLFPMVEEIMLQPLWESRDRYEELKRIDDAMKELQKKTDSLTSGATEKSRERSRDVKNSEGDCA

Compound | pIC50
CN1CC(=O)N2[C@H](c3ccc4c(c3)OCO4)c3[nH]c4ccccc4c3C[C@@H]2C1=O | 3.82
CCCOc1cc(C2(C)CNC(=O)O2)ccc1OC (racemic) [5-(4-methoxy-3-propoxyphenyl)-5-methyl-1,3-oxazolidin-2-one] | < 3.70
COc1ccc([C@@H]2CNC(=O)C2)cc1OC1CCCC1 (racemic) [Adeo] | < 3.70
COc1ccc(C(=O)Nc2c(Cl)cncc2Cl)cc1OC1CCCC1 [3-(cyclopentyloxy)-N-(3,5-dichloropyridin-4-yl)-4-methoxybenzamide] | < 3.70
COc1cc(-c2ccc(=O)[nH]n2)ccc1OC(F)F [6-[4-(difluoromethoxy)-3-methoxyphenyl]-2,3-dihydropyridazin-3-one] | < 3.70
COc1ccc(C(C)=NOC(N)=O)cc1OC1CCCC1 [(E)-{1-[3-(cyclopentyloxy)-4-methoxyphenyl]ethylidene}amino carbamate] | < 3.70
COc1ccc(C2(C#N)CCC(C(=O)O)CC2)cc1OC1CCCC1 (stereo not drawn) [Ariflo] | < 3.70
O=C(Nc1c(Cl)cncc1Cl)c1ccc(OC(F)F)c(OCC2CC2)c1 [DAXAS] | < 3.70

Molecular target: T2, cAMP-specific 3',5'-cyclic phosphodiesterase 7B [91-450] (Homo sapiens, UniProt Q9NP56)
T2 construct: 91-450
T2 sequence (Q9NP56 91-450): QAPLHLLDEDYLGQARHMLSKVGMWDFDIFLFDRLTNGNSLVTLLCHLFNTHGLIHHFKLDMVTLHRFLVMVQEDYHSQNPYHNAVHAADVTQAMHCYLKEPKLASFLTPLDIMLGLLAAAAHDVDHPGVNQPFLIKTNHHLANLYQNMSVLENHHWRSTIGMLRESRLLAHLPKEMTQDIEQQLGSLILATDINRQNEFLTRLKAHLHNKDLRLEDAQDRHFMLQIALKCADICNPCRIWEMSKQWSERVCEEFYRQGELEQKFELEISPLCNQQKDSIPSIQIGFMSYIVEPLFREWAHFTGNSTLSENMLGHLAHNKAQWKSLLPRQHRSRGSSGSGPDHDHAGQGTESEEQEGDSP
Assay: Phosphodiesterase (PDE) Inhibition Assay
Details: not given

Compound | pIC50
CN1CC(=O)N2[C@H](c3ccc4c(c3)OCO4)c3[nH]c4ccccc4c3C[C@@H]2C1=O | 4.13
COc1ccc([C@@H]2CNC(=O)C2)cc1OC1CCCC1 (racemic) [Adeo] | < 3.70
COc1ccc(C(C)=NOC(N)=O)cc1OC1CCCC1 [(E)-{1-[3-(cyclopentyloxy)-4-methoxyphenyl]ethylidene}amino carbamate] | 6.00
O=C(Nc1c(Cl)cncc1Cl)c1ccc(OC(F)F)c(OCC2CC2)c1 [DAXAS] | < 3.70

Molecular target: T3, cGMP-specific 3',5'-cyclic phosphodiesterase [531-875] (Homo sapiens, UniProt O76074)
T3 construct: 531-875
Assay: Phosphodiesterase (PDE) Inhibition Assay
Details: not given

Compound | pIC50
CCCOc1cc(C2(C)CNC(=O)O2)ccc1OC (racemic) [5-(4-methoxy-3-propoxyphenyl)-5-methyl-1,3-oxazolidin-2-one] | < 3.70
COc1ccc(C(=O)Nc2c(Cl)cncc2Cl)cc1OC1CCCC1 [3-(cyclopentyloxy)-N-(3,5-dichloropyridin-4-yl)-4-methoxybenzamide] | 5.46
COc1cc(-c2ccc(=O)[nH]n2)ccc1OC(F)F [6-[4-(difluoromethoxy)-3-methoxyphenyl]-2,3-dihydropyridazin-3-one] | 4.09
COc1ccc(C(C)=NOC(N)=O)cc1OC1CCCC1 [(E)-{1-[3-(cyclopentyloxy)-4-methoxyphenyl]ethylidene}amino carbamate] | 4.28
COc1ccc(C2(C#N)CCC(C(=O)O)CC2)cc1OC1CCCC1 (stereo not drawn) [Ariflo] | 4.28
O=C(Nc1c(Cl)cncc1Cl)c1ccc(OC(F)F)c(OCC2CC2)c1 [DAXAS] | 4.77

Molecular target: High affinity cAMP-specific and IBMX-insensitive 3',5'-cyclic phosphodiesterase 8A (Homo sapiens, UniProt O60658)
Sequence (O60658 whole entry): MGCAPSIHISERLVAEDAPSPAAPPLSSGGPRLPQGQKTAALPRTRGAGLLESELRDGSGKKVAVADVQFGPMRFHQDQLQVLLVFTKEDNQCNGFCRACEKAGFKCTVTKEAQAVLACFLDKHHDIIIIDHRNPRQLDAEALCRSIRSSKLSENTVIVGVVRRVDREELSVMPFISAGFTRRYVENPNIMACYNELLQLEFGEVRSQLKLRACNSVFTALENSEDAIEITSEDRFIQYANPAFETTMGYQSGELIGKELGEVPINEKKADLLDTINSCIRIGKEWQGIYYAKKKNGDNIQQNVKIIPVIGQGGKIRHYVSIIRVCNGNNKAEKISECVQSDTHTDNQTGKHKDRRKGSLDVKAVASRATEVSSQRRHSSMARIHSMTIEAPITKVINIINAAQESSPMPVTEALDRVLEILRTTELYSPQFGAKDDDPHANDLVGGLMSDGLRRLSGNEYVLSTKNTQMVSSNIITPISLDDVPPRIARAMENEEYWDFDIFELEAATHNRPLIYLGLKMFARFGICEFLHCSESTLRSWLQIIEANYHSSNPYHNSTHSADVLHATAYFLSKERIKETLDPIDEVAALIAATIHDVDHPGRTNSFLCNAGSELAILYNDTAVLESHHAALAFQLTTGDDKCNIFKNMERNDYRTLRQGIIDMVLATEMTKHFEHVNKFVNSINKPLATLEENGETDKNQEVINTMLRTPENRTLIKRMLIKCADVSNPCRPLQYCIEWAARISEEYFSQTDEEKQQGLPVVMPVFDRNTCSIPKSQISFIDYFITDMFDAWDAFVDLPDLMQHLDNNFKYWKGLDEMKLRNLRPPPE
Assay: Phosphodiesterase (PDE) Inhibition Assay
Details: not given

Compound | pIC50
CCCc1nc(C)c2c(=O)[nH]c(-c3cc(S(=O)(=O)N4CCN(CC)CC4)ccc3OCC)nn12 | 4.24
CN1CC(=O)N2[C@H](c3ccc4c(c3)OCO4)c3[nH]c4ccccc4c3C[C@@H]2C1=O | < 3.70
CCCOc1cc(C2(C)CNC(=O)O2)ccc1OC (racemic) [5-(4-methoxy-3-propoxyphenyl)-5-methyl-1,3-oxazolidin-2-one] | < 3.70
COc1ccc([C@@H]2CNC(=O)C2)cc1OC1CCCC1 (racemic) [Adeo] | < 3.70
COc1ccc(C(=O)Nc2c(Cl)cncc2Cl)cc1OC1CCCC1 [3-(cyclopentyloxy)-N-(3,5-dichloropyridin-4-yl)-4-methoxybenzamide] | < 3.70
COc1cc(-c2ccc(=O)[nH]n2)ccc1OC(F)F [6-[4-(difluoromethoxy)-3-methoxyphenyl]-2,3-dihydropyridazin-3-one] | 3.80
COc1ccc(C(C)=NOC(N)=O)cc1OC1CCCC1 [(E)-{1-[3-(cyclopentyloxy)-4-methoxyphenyl]ethylidene}amino carbamate] | 3.92
COc1ccc(C2(C#N)CCC(C(=O)O)CC2)cc1OC1CCCC1 (stereo not drawn) [Ariflo] | 5.15
O=C(Nc1c(Cl)cncc1Cl)c1ccc(OC(F)F)c(OCC2CC2)c1 [DAXAS] | < 3.70

Molecular target: T4, cGMP-inhibited 3',5'-cyclic phosphodiesterase 3B [650-1084] (Homo sapiens, UniProt Q13370)
T4 construct: 650-1084
T4 sequence (Q13370 650-1084): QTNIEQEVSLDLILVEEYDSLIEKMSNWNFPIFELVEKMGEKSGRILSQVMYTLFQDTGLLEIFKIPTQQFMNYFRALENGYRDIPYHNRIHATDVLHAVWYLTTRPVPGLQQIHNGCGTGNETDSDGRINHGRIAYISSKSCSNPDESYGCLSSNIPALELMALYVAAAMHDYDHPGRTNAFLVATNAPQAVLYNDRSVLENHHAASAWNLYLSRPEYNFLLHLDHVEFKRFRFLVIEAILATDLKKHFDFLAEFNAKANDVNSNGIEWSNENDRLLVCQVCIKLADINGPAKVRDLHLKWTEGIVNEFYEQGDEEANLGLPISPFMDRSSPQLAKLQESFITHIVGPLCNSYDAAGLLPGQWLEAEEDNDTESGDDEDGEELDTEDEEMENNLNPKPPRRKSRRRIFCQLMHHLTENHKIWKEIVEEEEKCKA
Assay: Phosphodiesterase (PDE) Inhibition Assay
Details: not given

Compound | pIC50
CN1CC(=O)N2[C@H](c3ccc4c(c3)OCO4)c3[nH]c4ccccc4c3C[C@@H]2C1=O | 3.55
CCCOc1cc(C2(C)CNC(=O)O2)ccc1OC (racemic) [5-(4-methoxy-3-propoxyphenyl)-5-methyl-1,3-oxazolidin-2-one] | < 3.70
COc1ccc([C@@H]2CNC(=O)C2)cc1OC1CCCC1 (racemic) [Adeo] | < 3.70
COc1ccc(C(=O)Nc2c(Cl)cncc2Cl)cc1OC1CCCC1 [3-(cyclopentyloxy)-N-(3,5-dichloropyridin-4-yl)-4-methoxybenzamide] | 4.96
COc1cc(-c2ccc(=O)[nH]n2)ccc1OC(F)F [6-[4-(difluoromethoxy)-3-methoxyphenyl]-2,3-dihydropyridazin-3-one] | 5.82
COc1ccc(C(C)=NOC(N)=O)cc1OC1CCCC1 [(E)-{1-[3-(cyclopentyloxy)-4-methoxyphenyl]ethylidene}amino carbamate] | 5.03
COc1ccc(C2(C#N)CCC(C(=O)O)CC2)cc1OC1CCCC1 (stereo not drawn) [Ariflo] | 4.06
O=C(Nc1c(Cl)cncc1Cl)c1ccc(OC(F)F)c(OCC2CC2)c1 [DAXAS] | < 3.70

Molecular target: T5, cGMP-dependent 3',5'-cyclic phosphodiesterase [574-941] (Homo sapiens, UniProt O00408)
T5 construct: 574-941
T5 sequence (O00408 574-941): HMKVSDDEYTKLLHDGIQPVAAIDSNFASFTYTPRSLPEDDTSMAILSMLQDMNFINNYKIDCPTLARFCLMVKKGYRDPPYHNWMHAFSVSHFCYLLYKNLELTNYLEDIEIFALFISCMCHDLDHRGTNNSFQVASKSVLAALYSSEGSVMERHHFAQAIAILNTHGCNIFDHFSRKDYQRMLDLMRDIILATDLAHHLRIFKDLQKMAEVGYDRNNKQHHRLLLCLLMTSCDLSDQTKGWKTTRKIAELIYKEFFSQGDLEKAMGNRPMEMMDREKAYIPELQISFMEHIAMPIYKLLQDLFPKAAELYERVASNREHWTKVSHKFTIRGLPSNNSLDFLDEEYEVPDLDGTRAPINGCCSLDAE
Assay: Phosphodiesterase (PDE) Inhibition Assay
Details: not given

Compound | pIC50
CCCc1nc(C)c2c(=O)[nH]c(-c3cc(S(=O)(=O)N4CCN(CC)CC4)ccc3OCC)nn12 | 5.51
CN1CC(=O)N2[C@H](c3ccc4c(c3)OCO4)c3[nH]c4ccccc4c3C[C@@H]2C1=O | 3.89
COc1ccc(C(=O)Nc2c(Cl)cncc2Cl)cc1OC1CCCC1 [3-(cyclopentyloxy)-N-(3,5-dichloropyridin-4-yl)-4-methoxybenzamide] | 4.27
O=C(Nc1c(Cl)cncc1Cl)c1ccc(OC(F)F)c(OCC2CC2)c1 [DAXAS] | < 3.70

Same assay, conditions: pH 7.5; 30 °C

Compound | pIC50
CCCOc1cc(C2(C)CNC(=O)O2)ccc1OC (racemic) [5-(4-methoxy-3-propoxyphenyl)-5-methyl-1,3-oxazolidin-2-one] | < 3.70
COc1ccc([C@@H]2CNC(=O)C2)cc1OC1CCCC1 (racemic) [Adeo] | < 3.70
COc1cc(-c2ccc(=O)[nH]n2)ccc1OC(F)F [6-[4-(difluoromethoxy)-3-methoxyphenyl]-2,3-dihydropyridazin-3-one] | < 3.70
COc1ccc(C(C)=NOC(N)=O)cc1OC1CCCC1 [(E)-{1-[3-(cyclopentyloxy)-4-methoxyphenyl]ethylidene}amino carbamate] | 4.05
COc1ccc(C2(C#N)CCC(C(=O)O)CC2)cc1OC1CCCC1 (stereo not drawn) [Ariflo] | 3.80

Molecular target: cAMP-specific 3',5'-cyclic phosphodiesterase 4D [372-376,381-715,S375G,I381V,S383G,G384S,V385H,K386M) (Homo sapiens, UniProt Q08499, S375G/I381V/S383G/G384S/V385H/K386M)
Assay: Phosphodiesterase (PDE) Inhibition Assay
Details: not given

Compound | pIC50
COc1ccc(C(C)=NOC(N)=O)cc1OC1CCCC1 [(E)-{1-[3-(cyclopentyloxy)-4-methoxyphenyl]ethylidene}amino carbamate] | 6.00

Molecular target: T6, cAMP and cAMP-inhibited cGMP 3',5'-cyclic phosphodiesterase 10A [432-779] (Homo sapiens, UniProt Q9Y233)
T6 construct: 432-779
T6 sequence (Q9Y233 708-1055): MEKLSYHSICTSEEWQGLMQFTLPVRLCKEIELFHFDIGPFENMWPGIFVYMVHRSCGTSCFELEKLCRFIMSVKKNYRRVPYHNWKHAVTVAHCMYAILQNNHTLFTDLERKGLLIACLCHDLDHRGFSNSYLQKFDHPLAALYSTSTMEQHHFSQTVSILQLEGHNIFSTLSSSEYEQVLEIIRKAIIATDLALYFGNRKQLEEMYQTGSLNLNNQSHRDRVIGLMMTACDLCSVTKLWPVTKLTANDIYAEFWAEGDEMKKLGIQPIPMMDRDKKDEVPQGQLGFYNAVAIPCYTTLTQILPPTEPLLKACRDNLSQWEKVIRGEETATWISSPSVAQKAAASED
Assay: Phosphodiesterase (PDE) Inhibition Assay
Details: not given

Compound | pIC50
CCCc1nc(C)c2c(=O)[nH]c(-c3cc(S(=O)(=O)N4CCN(CC)CC4)ccc3OCC)nn12 | 6.06
CN1CC(=O)N2[C@H](c3ccc4c(c3)OCO4)c3[nH]c4ccccc4c3C[C@@H]2C1=O | 4.72
CCCOc1cc(C2(C)CNC(=O)O2)ccc1OC (racemic) [5-(4-methoxy-3-propoxyphenyl)-5-methyl-1,3-oxazolidin-2-one] | 4.20
COc1cc(-c2ccc(=O)[nH]n2)ccc1OC(F)F [6-[4-(difluoromethoxy)-3-methoxyphenyl]-2,3-dihydropyridazin-3-one] | 4.85
COc1ccc(C(C)=NOC(N)=O)cc1OC1CCCC1 [(E)-{1-[3-(cyclopentyloxy)-4-methoxyphenyl]ethylidene}amino carbamate] | 4.57
COc1ccc(C2(C#N)CCC(C(=O)O)CC2)cc1OC1CCCC1 (stereo not drawn) [Ariflo] | 4.14
O=C(Nc1c(Cl)cncc1Cl)c1ccc(OC(F)F)c(OCC2CC2)c1 [DAXAS] | < 3.70

Molecular target: Dual specificity calcium/calmodulin-dependent 3',5'-cyclic nucleotide phosphodiesterase 1B (Homo sapiens, UniProt Q01064)
Sequence (Q01064 whole entry): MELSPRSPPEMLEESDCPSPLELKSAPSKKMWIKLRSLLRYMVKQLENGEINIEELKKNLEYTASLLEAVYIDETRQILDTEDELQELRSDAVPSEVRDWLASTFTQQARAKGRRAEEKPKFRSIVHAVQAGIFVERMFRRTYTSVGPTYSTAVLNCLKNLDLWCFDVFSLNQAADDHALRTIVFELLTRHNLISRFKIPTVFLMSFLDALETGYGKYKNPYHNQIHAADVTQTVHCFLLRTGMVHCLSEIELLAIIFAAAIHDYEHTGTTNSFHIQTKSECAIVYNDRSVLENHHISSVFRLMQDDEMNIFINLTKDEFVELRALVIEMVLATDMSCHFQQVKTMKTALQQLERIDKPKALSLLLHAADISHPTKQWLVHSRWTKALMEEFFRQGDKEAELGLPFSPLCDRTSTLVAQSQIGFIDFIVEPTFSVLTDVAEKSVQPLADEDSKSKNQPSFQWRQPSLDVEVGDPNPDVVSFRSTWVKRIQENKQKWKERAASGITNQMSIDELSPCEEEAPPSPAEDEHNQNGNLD
Assay: Phosphodiesterase (PDE) Inhibition Assay
Details: pH 7.5; 30 °C

Compound | pIC50
CN1CC(=O)N2[C@H](c3ccc4c(c3)OCO4)c3[nH]c4ccccc4c3C[C@@H]2C1=O | 4.30
CCCOc1cc(C2(C)CNC(=O)O2)ccc1OC (racemic) [5-(4-methoxy-3-propoxyphenyl)-5-methyl-1,3-oxazolidin-2-one] | < 3.70
COc1ccc([C@@H]2CNC(=O)C2)cc1OC1CCCC1 (racemic) [Adeo] | < 3.70
COc1ccc(C(=O)Nc2c(Cl)cncc2Cl)cc1OC1CCCC1 [3-(cyclopentyloxy)-N-(3,5-dichloropyridin-4-yl)-4-methoxybenzamide] | 4.17
COc1cc(-c2ccc(=O)[nH]n2)ccc1OC(F)F [6-[4-(difluoromethoxy)-3-methoxyphenyl]-2,3-dihydropyridazin-3-one] | < 3.70
COc1ccc(C(C)=NOC(N)=O)cc1OC1CCCC1 [(E)-{1-[3-(cyclopentyloxy)-4-methoxyphenyl]ethylidene}amino carbamate] | 3.72
COc1ccc(C2(C#N)CCC(C(=O)O)CC2)cc1OC1CCCC1 (stereo not drawn) [Ariflo] | 4.06
O=C(Nc1c(Cl)cncc1Cl)c1ccc(OC(F)F)c(OCC2CC2)c1 [DAXAS] | < 3.70

Molecular target: T7, Isoform 4 of Dual 3',5'-cyclic-AMP and -GMP phosphodiesterase 11A (PDE11A1) 35-489] (Homo sapiens, UniProt Q9HCR9)
T7 sequence (Q9HCR9 whole entry): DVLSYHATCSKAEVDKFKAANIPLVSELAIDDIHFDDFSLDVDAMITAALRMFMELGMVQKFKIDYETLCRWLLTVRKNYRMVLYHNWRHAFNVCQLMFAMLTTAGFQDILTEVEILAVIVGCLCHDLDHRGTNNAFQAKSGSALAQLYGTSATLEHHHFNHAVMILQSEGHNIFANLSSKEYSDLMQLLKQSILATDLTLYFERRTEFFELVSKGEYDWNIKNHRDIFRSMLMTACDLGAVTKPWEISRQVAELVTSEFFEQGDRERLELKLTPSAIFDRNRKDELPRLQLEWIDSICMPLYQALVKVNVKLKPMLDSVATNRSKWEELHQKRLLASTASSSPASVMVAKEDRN
Assay: Phosphodiesterase (PDE) Inhibition Assay
Details: not given

Compound | pIC50
CCCc1nc(C)c2c(=O)[nH]c(-c3cc(S(=O)(=O)N4CCN(CC)CC4)ccc3OCC)nn12 | 6.62
CCCOc1cc(C2(C)CNC(=O)O2)ccc1OC (racemic) [5-(4-methoxy-3-propoxyphenyl)-5-methyl-1,3-oxazolidin-2-one] | < 3.70
COc1ccc([C@@H]2CNC(=O)C2)cc1OC1CCCC1 (racemic) [Adeo] | < 3.70
COc1ccc(C(=O)Nc2c(Cl)cncc2Cl)cc1OC1CCCC1 [3-(cyclopentyloxy)-N-(3,5-dichloropyridin-4-yl)-4-methoxybenzamide] | 5.80
COc1cc(-c2ccc(=O)[nH]n2)ccc1OC(F)F [6-[4-(difluoromethoxy)-3-methoxyphenyl]-2,3-dihydropyridazin-3-one] | 3.85
COc1ccc(C(C)=NOC(N)=O)cc1OC1CCCC1 [(E)-{1-[3-(cyclopentyloxy)-4-methoxyphenyl]ethylidene}amino carbamate] | 4.24
COc1ccc(C2(C#N)CCC(C(=O)O)CC2)cc1OC1CCCC1 (stereo not drawn) [Ariflo] | 4.68
O=C(Nc1c(Cl)cncc1Cl)c1ccc(OC(F)F)c(OCC2CC2)c1 [DAXAS] | 4.60
